Several values for one entry are separate records, joined by “and”; a condition that tells them apart may be missing. Identical values can stand only once.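 All cell lines were grown in 96-well plates and treated with compound for 48 hours. At the GI50, growth is halved.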 Activity calls are given as the source filed them. Rule as the data show it: active = GI50 up to about 1.1 µM and inactive = higher.
Assays:
Experiment in all cases: DTP human tumour cell line panel, 48 h
RXF 393 = system: RXF 393
KM12 = system: KM12
MDA-MB-231 = system: MDA-MB-231
NCI-H23 = system: NCI-H23
DU-145 = system: DU-145
LOX IMVI = system: LOX IMVI
UACC-257 = system: UACC-257
RPMI-8226 = system: RPMI-8226
CCRF-CEM = system: CCRF-CEM
TK-10 = system: TK-10
UACC-62 = system: UACC-62
MDA-MB-435 = system: MDA-MB-435
NCI-H226 = system: NCI-H226
PC-3 = system: PC-3
SR = system: SR
HT-29 = system: HT-29
OVCAR-3 = system: OVCAR-3
HCT-116 = system: HCT-116
UO-31 = system: UO-31
MCF7 = system: MCF7

Measured: GI50

COC(=O)CC1(O)C=CC(=O)C=C1 [JACARANONE]
inactive: RXF 393 3.36 µM | KM12 1.74 µM | MDA-MB-231 2.66 µM | NCI-H23 2.96 µM | DU-145 5.06 µM | LOX IMVI 2.51 µM | UACC-257 2.65 µM | RPMI-8226 5.45 µM | CCRF-CEM 1.99 µM | TK-10 4.81 µM | UACC-62 2.13 µM | MDA-MB-435 6.47 µM | NCI-H226 8.61 µM | PC-3 2.57 µM | SR 2.47 µM | HT-29 6.24 µM | OVCAR-3 3.91 µM | HCT-116 9.77 µM | UO-31 2.96 µM | MCF7 2.97 µM

COC(=O)N/N=C(\c1ccccc1)c1ccc(OC)cc1
inactive: RXF 393 > 100 µM | KM12 > 100 µM | MDA-MB-231 > 100 µM | NCI-H23 > 100 µM | DU-145 > 100 µM | LOX IMVI 35.3 µM | UACC-257 > 100 µM | RPMI-8226 > 100 µM | CCRF-CEM > 100 µM | TK-10 > 100 µM | UACC-62 > 100 µM | MDA-MB-435 76.7 µM | NCI-H226 > 100 µM | PC-3 > 100 µM | SR > 100 µM | HT-29 > 100 µM | OVCAR-3 > 100 µM | HCT-116 > 100 µM | UO-31 35.1 µM | MCF7 > 100 µM

O=[N+]([O-])c1ccc(NC(=S)Nc2ccccn2)cc1
inactive: RXF 393 4.68 µM | KM12 10.3 µM | MDA-MB-231 40.3 µM | NCI-H23 63.4 µM | DU-145 7.5 µM | LOX IMVI 16.4 µM | UACC-257 64.4 µM | RPMI-8226 > 100 µM | CCRF-CEM > 64.4 µM | TK-10 31.3 µM | UACC-62 19.9 µM | MDA-MB-435 20.8 µM | NCI-H226 22.7 µM | PC-3 40.6 µM | SR 5.28 µM | HT-29 31.7 µM | OVCAR-3 18.6 µM | HCT-116 11.9 µM | UO-31 26.2 µM | MCF7 12.4 µM

C=CCOC(=O)C1=C(C)N=C2N[C@H](CCCCCCCCC)C[C@@H]3CCC1N23 (stereo not given in full)
inactive: RXF 393 19.5 µM | KM12 34 µM | MDA-MB-231 21.5 µM | NCI-H23 20 µM | DU-145 27.4 µM | LOX IMVI 21.6 µM | UACC-257 18.3 µM | RPMI-8226 30.7 µM | CCRF-CEM 36.4 µM | TK-10 19.2 µM | UACC-62 17.7 µM | MDA-MB-435 20.3 µM | NCI-H226 17.9 µM | PC-3 21.6 µM | SR 28.4 µM | HT-29 27.9 µM | OVCAR-3 19.4 µM | HCT-116 18.8 µM | UO-31 17.1 µM | MCF7 18 µM

Oc1ccc(Cc2nccc3cc(O)c(O)cc23)cc1O
inactive: RXF 393 37.6 µM | KM12 67.3 µM | MDA-MB-231 97.1 µM | NCI-H23 38.1 µM | DU-145 66.5 µM | LOX IMVI 33.5 µM | UACC-257 20.8 µM | RPMI-8226 27.4 µM | CCRF-CEM 17.9 µM | TK-10 32.7 µM | UACC-62 33.4 µM | MDA-MB-435 51.3 µM | NCI-H226 46.2 µM | PC-3 52.6 µM | SR 19.6 µM | HT-29 53.5 µM | OVCAR-3 90.8 µM | HCT-116 17.7 µM | UO-31 40.6 µM | MCF7 21.5 µM

O=C(/C=C/c1ccc(OCc2ccccc2)cc1)NCc1ccc(C(=O)NCCc2c[nH]c3ccccc23)cc1
inactive: RXF 393 7.06 µM | KM12 63.8 µM | MDA-MB-231 13.8 µM | NCI-H23 14.9 µM | DU-145 32.8 µM | LOX IMVI 44.3 µM | UACC-257 33 µM | RPMI-8226 > 100 µM | CCRF-CEM 70.6 µM | TK-10 9.35 µM | UACC-62 15.5 µM | MDA-MB-435 > 57.3 µM | NCI-H226 > 34.6 µM | PC-3 12 µM | SR 20.9 µM | HT-29 4.33 µM | OVCAR-3 29 µM | HCT-116 15.4 µM | UO-31 35 µM | MCF7 17.1 µM

Nc1ncnc2c1ncn2C1CC(O)C(CO)O1 (stereo not given)
inactive: RXF 393 > 100 µM | KM12 62.7 µM | MDA-MB-231 > 100 µM | NCI-H23 > 100 µM | DU-145 > 100 µM | LOX IMVI > 100 µM | UACC-257 > 100 µM | RPMI-8226 > 100 µM | CCRF-CEM > 100 µM and 70.5 µM | TK-10 > 100 µM | UACC-62 > 100 µM | MDA-MB-435 > 100 µM | NCI-H226 > 100 µM | PC-3 > 100 µM | SR > 100 µM | HT-29 > 100 µM | OVCAR-3 > 100 µM | HCT-116 > 100 µM | UO-31 > 100 µM | MCF7 > 100 µM

CC1(C)[N+]([O-])=[N+]([O-])C1(C)O (stereo not given)
inactive: RXF 393 > 100 µM | KM12 > 100 µM | MDA-MB-231 > 100 µM | NCI-H23 > 100 µM | DU-145 > 100 µM | LOX IMVI > 100 µM | UACC-257 > 100 µM | RPMI-8226 > 100 µM | CCRF-CEM > 100 µM | TK-10 > 100 µM | UACC-62 > 100 µM | MDA-MB-435 > 100 µM | NCI-H226 > 100 µM | PC-3 > 100 µM | SR > 100 µM | HT-29 > 100 µM | OVCAR-3 > 100 µM | HCT-116 > 100 µM | UO-31 > 100 µM | MCF7 > 100 µM

Cn1c(=O)[nH]c2nccnc2c1=O
inactive: RXF 393 > 10 µM | KM12 > 10 µM | MDA-MB-231 > 10 µM | NCI-H23 > 10 µM | DU-145 > 10 µM | LOX IMVI > 10 µM | UACC-257 > 10 µM | RPMI-8226 > 10 µM | CCRF-CEM > 10 µM | TK-10 > 10 µM | UACC-62 > 10 µM | MDA-MB-435 > 10 µM | NCI-H226 > 10 µM | PC-3 > 10 µM | SR > 10 µM | HT-29 > 10 µM | OVCAR-3 > 10 µM | HCT-116 > 10 µM | UO-31 > 10 µM | MCF7 > 10 µM

CC(=O)O/N=C1\C=Cc2c(no[n+]2[O-])C1=O
inactive: RXF 393 15.2 µM | KM12 18 µM | MDA-MB-231 18.9 µM | NCI-H23 20 µM | DU-145 17.9 µM | LOX IMVI 18 µM | UACC-257 18.2 µM | RPMI-8226 30 µM | CCRF-CEM 3.65 µM | TK-10 15.6 µM | UACC-62 16 µM | MDA-MB-435 20.6 µM | NCI-H226 > 100 µM | PC-3 17 µM | SR 15.8 µM | HT-29 17.5 µM | OVCAR-3 16.2 µM | HCT-116 14.3 µM | UO-31 15.1 µM | MCF7 22.5 µM

Source: ChEMBL document CHEMBL1201862, “PubChem BioAssay data set” (2004)
